# Measurements taken from US8466147B2, “Use of reversine and analogs for treatment of cancer” (Dana-Farber Cancer Institute, Inc., priority 2006, dated 2013).
# Experiments:
# MM cells [1] = test: Anti-MM activity of reversine analog; format: cell-based; conditions: FIG. 14
# MM cell lines = conditions: reversine 1 μM, washout, then drug-free medium
# Experimental: Cell death commitment assay. The minimum time length of exposure to reversine that is required to commit MM cells to apoptosis was evaluated by incubating cells in 24-well plates with reversine (1 μM) for 1, 2, 4, 8, 16 or 24 hours. At the end of this incubation, the cells were washed 3 times and incubated in drug-free medium for an additional 3 days, resulting in equal length of total incubation for all experimental conditions ([…]), at which point cell survival was quantified by MTT, as above, and expressed as percentage of the value obtained from respective controls.
# [2] = system: primary myeloma tumor specimens from heavily pre-treated patients
# Experimental: (§1) MTT cell survival assay. Viability of cells treated with reversine, alone or combined with other agents, was assessed by measuring 3-(4,5-dimethylthiazol-2-yl)-2,5-diphenyl […] bromide (MTT, Chemicon International, Temecula, Calif.) dye absorbance. Cells were pulsed with 1:10 the culture volume of 5 mg/ml MTT to each well for the last 4 hrs of 72 hr cultures, followed by 1.5-3 fold the culture volume of isopropanol containing 0.04N HCl. Absorbance was measured at 570/630 nm using a spectrophotometer (Molecular Devices Corp., Sunnyvale Calif.). Recombinant human IL-6 and IGF (R&D Systems; Minneapolis, Minn.) was used at 10 ng/mL and 50 ng/mL respectively, as indicated. For testing normal PBMCs, healthy donor blood was collected using heparinized tubes, separated by Ficoll (Amersham Biosciences; Sweden) gradient separation and plated at 150,000 cells per well and pre-stimulated, as indicated, with 5 ng/mL PHA (Sigma) for 24 hrs.
# stromal cells = conditions: 1 microM, in vitro
# Experimental: as §1
# MM cells [3] = conditions: combined with dexamethasone (5 nM)
# Experimental: as §1
# MM.1S tumor cell line = system: MM.1S tumor cell line
# Experimental: as §1
# [4] = system: peripheral blood mononuclear cells (PBMCs)
# Experimental: as §1
# hepatocytes = conditions: 1 microM, in vitro
# Experimental: as §1
# chicken B-cell line DT40 = conditions: FIG. 13
# [5] = system: GFP-luc expressing MM.1R cells; conditions: 72 hrs, luciferase readout
# Experimental: (§2) Activity against myeloma cells in co-culture with bone marrow stromal cells. Co-culture Stromal cells were plated at a density of 10,000 cells per well in optical 96-well plates and were incubated for 24 hrs to allow for attachment. Tumor cell lines stably expressing luciferase were plated at 1500 cells per well. Cells were treated immediately following plating and incubated for 72 hrs. Luciferin substrate was added to cultures, mixed, and incubated at room temperature. Samples were read using a Luminoskan luminometer (Labsystems, Ramsey, Minn.).
# [6] = system: GFP-luc expressing MM.1S cells; conditions: 72 hrs, luciferase readout
# Experimental: as §2
# various kinases = conditions: 500 nM
# Experimental: In vitro activity against kinases. Kinase activity was screened using 500 nM of reversine (in 1% DMSO) and ATP using the Invitrogen Z′-LYTE™ kinase assay platform (Invitrogen). In summary, in first reaction the kinase transfers the gamma-phosphate of ATP to a single tyrosine, serine or threonine residue in a synthetic FRET-peptide. In the secondary reaction, a site-specific protease recognizes and cleaves non-phosphorylated FRET-peptides. To calculate kinase activity, the ratio of donor emission to acceptor emission after excitation of the fluorophore at 400 nm was compared.
# OPM2 cells = conditions: oral gavage, 1 mg/kg twice weekly
# Source text: Anti-myeloma activity in animals. […] Briefly, male (6 to 8-week old) SCID/Beige mice, housed and monitored in the Animal Research Facility of the Dana-Farber Cancer Institute, were irradiated (300 rads) using Cs^137 gamma-irradiator source, and received (24 hrs post-irradiation) tail i.v. injections of 10^6 OPM2 cells suspended in total volume of 200 microL of phosphate buffered saline (PBS) per mouse. Mice were monitored for changes in body weight and signs of infection or paralysis. In accordance with institutional guidelines, mice were sacrificed by CO2 inhalation in the event of paralysis or major compromise in their quality of life. All experimental procedures and protocols had been approved by the Animal Care and Use Committee of the Dana-Farber Cancer Institute. Overall survival (defined as time between i.v. injection of tumor cells and sacrifice or death) was compared in control vs. 1 mg/mg reversine-treated (P.O. twice weekly) mice by Kaplan-Meier method.
# various phosphatases = conditions: 500 nM
# Experimental: In vitro activity against phosphatases. In vitro phosphatase activity was screened at 500 nM reversine using the DiFMUP technology (Molecular Probes). Briefly, 6,8-difluoro-4-methylumbelliferyl phosphate substrate is combined with ATP and drug. The removal of the phosphate group on 6,8-difluoro-4-methylumbelliferyl yields a more fluorescent version of the substrate than the non-hydrolyzed form. The amount of fluorescent signal directly corresponds to the level of phosphatase activity.
# [7] = system: tumor cell lines, including myeloma, leukemia, lymphoma and thyroid
# Source text: Cell lines. ARD, ARH-77, ARK, ARO, ARP-1, BHT101, BHP-10-3, BHP-14-9, BHP-17-10, BHP-18-17, BHP-19-24, BHP2-7, BHP-5, BHP-7, DHL-4, DHL-6, DHL-7, DHL-8, DHL-10, Dox6, EJM, FRO, IM9, INA-6, JJN3, KAT-4, KAT-4B, KAT4C, KAT18, KMS-1, KMS-11, KMS-12BM, KMS-18, KMS-20, KMS-26, KMS-28-BM, KMS-28-PE, KMS-34, KMS-5, L363, LPCL-HO, LRS, MM-AS, MEG-01, MM144, MM-1R, MM-1S, MM1S-Akt, MMSV, Namalwa, NCI-H929, NOP2, NPA, OCI MY1, OCI-MY5, OCI-My7, OPM-1, OPM-2, OPM-6, RPMI8226, S6B45, SKMM2, SW579, SW1736, THLE-3, TK PCL, TT, U266, WM-WSU, WRO, XG1, and ZR-75-1 were grown in either Dulbecco's modified Eagle's medium (DMEM) (BioWhittaker, Walkersville, Md.) or Roswell Park Memorial Institute medium (RPMI) (BioWhittaker) with 100 U/ml penicillin, 100 μg/ml streptomycin and 10% fetal calf serum (FCS) (GIBCO/BRL, Gaithersburg, Md.), unless stated otherwise.
# as §1
# [8] = system: MM cells (MM.1S, OPM-1 human tumor cells); conditions: 1 microM reversine
# Source text: Cell cycle analysis. Cell lines, treated with reversine for 0, 2, 4, 8,16, 24, and 48 hrs were stained using a solution of propidium iodide (Sigma) and RNase A following 70% EtOH fixation.
# MM.1S cells = conditions: 1 microM reversine, 2-48 hr
# Experimental: Immunoblotting analysis. Immunoblotting was performed by scrapping cells (1×10^6), centrifuged briefly and lysed for 30 min on ice in 50 mM Tris-HCl, pH 8.0, containing 120 mM NaCl and 1% Igepal, supplemented with the Complete-TM mixture of proteinase inhibitors. The samples were cleared by centrifugation (14,000 rpm, 30 min, 4° C.) and assessed for protein concentration. SDS-polyacrylamide gel electrophoresis (12%) was performed (30-50 μg of protein per lane) and the proteins were electroblotted onto PVDF membranes. After 1 hour incubation in blocking solution (5% milk in TBST), the membranes were exposed to primary antibody overnight at 4° C. Following washing in TBST, the respective secondary HRP-labeled antibody was added at 1:20,000 dilution for 1 hr at room temperature. The membrane was then washed with TBST for 45-60 min with multiple changes of the wash buffer. Following washing, the protein expression was visualized using the ECL technique. The primary antibodies used for immunoblotting were purchased from Santa Cruz Biotechnology (Santa Cruz, Calif.), Upstate Biotechnologies (Lake Placid, N.Y.) or Cell Signaling (Beverly, Mass.). Secondary antibodies were purchased from (Jackson ImmunoResearch West Grove, Pa.).
# MR20 myeloma cells = conditions: 72 hours
# Experimental: Treatment of reversine in the Side Populations of MR20 myeloma cells. MR20 cells were plated at a density of 1×10*5 cells/mL in RPMI media supplemented with Pen/Strep and 10% FBS. Reversine was added to the cells at a range of concentrations, the cells were then incubated for 72 hrs at 37 degrees C. Following the incubation period, the cells were collected and stained with Hoescht, and counter stained with 7-AAD. Reserpine, a inhibitor of the membrane transporter, was added to a sample of control cells to identify the “side population” cells (control). The samples were then analyzed on a BD FACS Aria with a UV laser to excite the Hoescht stain. The samples were first gated on the cellular fraction (by forward and side scatter), then on the viable cells (7-AAD negative), then on the Hoescht-Blue negative Hoescht-Red negative fraction representing the Side Population.
structure (smiles),measurement,setting,value
c1nc2nc(NC3CCCCC3)nc(Nc3ccc(N4CCOCC4)cc3)c2[nH]1 [retreversine],anti-MM activity in comparison with reversine,MM cells [1],reduced activity
"c1nc2nc(Nc3ccc(N4CCOCC4)cc3)nc(NC3CCCCC3)c2[nH]1 [reversine, 2-(4-morpholinoanilino)-6-cyclohexylaminopurine]",treatment time that commits cells to death,MM cell lines,less than 24 hrs
same,dose with anti-MM activity,[2],≤ 1 µM
same,toxicity to stromal cells,stromal cells,minimal toxicity
same,anti-MM activity of combination,MM cells [3],greater than additive
same,difference in normalized effect with versus without cytokines,MM.1S tumor cell line; 10 μM reversine,virtually no difference
same,tumor cell viability,"MM.1S tumor cell line; presence or absence of cytokines (IL-6, IGF)",dose dependent decrease in tumor cell viability
same,toxicity to PBMCs stimulated with phytohaemagglutinin,"[4]; PHA-stimulated, in vitro",limited toxicity
same,toxicity to PBMCs,"[4]; unstimulated, doses as high as 10 microM",does not cause major toxicity
same,toxicity to hepatocytes,hepatocytes,minimal toxicity
same,sensitivity of syk-expressing versus syk-/- DT40 cells,chicken B-cell line DT40,more sensitive
same,sensitivity in co-culture with bone marrow stromal cells,[5],increased
same,sensitivity in co-culture with bone marrow stromal cells,[6],increased
same,inhibition of kinase activity,various kinases,inhibition of kinase activity was observed
same,survival compared to control mice,OPM2 cells,Survival was extended
same,inhibition of phosphatase activity,various phosphatases,inhibition of phosphatase activity was not seen
same,concentration with significant anti-tumor activity,[7]; in many cases,≤ 1 µM
same,anti-tumor effects in tumor cell lines,"[7]; myeloma, leukemia, lymphoma and thyroid lines, FIG. 1",anti-tumor effects in a broad range of tumor cell lines
same,"anti-tumor effect, potency in words",[7]; subset of MM cell lines,sub-micro molar anti-tumor effect
same,survival rate,"[7]; wide variety of tumor cell lines, reversine between 1 and 10 μM, 72 hour exposure",0%
same,exposure time after which the sub-G0 fraction increases,[8],more than 16 hr
same,time of G2 arrest after initial exposure,[8],8 to 16 h
same,B-raf and Akt levels,MM.1S cells,inhibition of B-raf and Akt levels
same,"apoptosis markers (caspase 3, PARP)",MM.1S cells,cleavge of caspase 3 and PARP
same,effect on chaperone proteins Hsp70 and Hsp90,MM.1S cells,minimal affects
same,"phospho-specific proteins (phospho-Akt, phospho-MEK, phospho-MAPK, phospho-IKB, phospho-p70S6K)",MM.1S cells; no increase in total protein levels,increased levels
same,sensitivity of side population (SP) cells versus main population,MR20 myeloma cells,more sensitive than the main population
same,percentage of SP cells,MR20 myeloma cells; increasing concentrations,decreased with increasing doses
